# Assay results from patent US20240287076A1, “COMPOUNDS FOR TARGETING DEGRADATION OF BRUTON'S TYROSINE KINASE” (BIOGEN MA INC., priority 2021, published 2024).
# Molecular target: T1, BTK (Homo sapiens, UniProt Q06187)
# T1 construct: The GM01501.3 cell line endogenously expresses BTK with a HiBiT fusion tag via CRISPR knock-in at its C-terminal region; endogenous in cells; host or cells: GM01501.3 (GM01501 cells engineered by CRISPR knock-in of HiBiT at the BTK locus)
# Test: BTK degradation assay using the HiBiT Method (Nano-Glo HiBiT Lytic Assay, GM01501.3 cells)
# Type: cell-based
# Conditions: HiBiT Degradation on GM01501.3 BTK @ 6 hours
# Experimental: Selected compounds were tested in a BTK degradation assay using the HiBiT Method. Park Memorial Institute (RPM1) 1640 Medium with phenol red, L-Glutamine, Sodium Pyruvate, and fetal bovine serum (FBS) were purchased from Gibco (Grand Island, NY, USA). Nano-Glo® HiBiT Lytic Assay System was purchased from Promega (Madison, WI, USA). GM01501 cells were obtained from the NIGMS Human Genetic Cell Repository at the Coriell Institute for Medical Research. The GM01501.3 cell line endogenously expresses BTK with a HiBiT fusion tag via CRISPR knock-in at its C-terminal region. It was engineered by electroporation with the Neon Transfection System (Themo Fisher Scientific), according to manufacturer indications. Electroporation conditions: 1 pulse of 1,350 V for 30 ms for 0.5×10_6 cells. Cell culture flasks and 384-well microplates were acquired from VWR (Radnor, PA, USA). BTK degradation was evaluated by quantification of luminescent signal using Nano-Glo® HiBiT Lytic Assay kit. Test compounds were added to the 384-well plate from a top concentration of 10 μM with 11 points, half log titration in duplicates. GM01501.3 cells were added into 384-well plates at a cell density of 10,000 cells per well in a total volume of 30 μl. The plates were kept at 37° C. with 5% CO2 for 6 hours. Negative control wells included cells treated with DMSO only and positive control wells included only growing media, without Nano-Glo® HiBiT Lytic reagent. After a 6-hour incubation, Nano-Glo® HiBiT Lytic Assay reagent was added to the cells following manufacturer indications. Luminescence was acquired on EnVision™ Multilabel Reader (PerkinElmer, Santa Clara, CA, USA). […] “++++” represents a DC50 value of less than 100 nM. “+++” represents a DC50 value of 100 nM-500 nM. “++” represents a DC50 value of 500 nM-1000 nM. “+” represents a DC50 value of greater than 1000 nM.
# T1 sequence (Q06187 whole entry, the tested form may be a part): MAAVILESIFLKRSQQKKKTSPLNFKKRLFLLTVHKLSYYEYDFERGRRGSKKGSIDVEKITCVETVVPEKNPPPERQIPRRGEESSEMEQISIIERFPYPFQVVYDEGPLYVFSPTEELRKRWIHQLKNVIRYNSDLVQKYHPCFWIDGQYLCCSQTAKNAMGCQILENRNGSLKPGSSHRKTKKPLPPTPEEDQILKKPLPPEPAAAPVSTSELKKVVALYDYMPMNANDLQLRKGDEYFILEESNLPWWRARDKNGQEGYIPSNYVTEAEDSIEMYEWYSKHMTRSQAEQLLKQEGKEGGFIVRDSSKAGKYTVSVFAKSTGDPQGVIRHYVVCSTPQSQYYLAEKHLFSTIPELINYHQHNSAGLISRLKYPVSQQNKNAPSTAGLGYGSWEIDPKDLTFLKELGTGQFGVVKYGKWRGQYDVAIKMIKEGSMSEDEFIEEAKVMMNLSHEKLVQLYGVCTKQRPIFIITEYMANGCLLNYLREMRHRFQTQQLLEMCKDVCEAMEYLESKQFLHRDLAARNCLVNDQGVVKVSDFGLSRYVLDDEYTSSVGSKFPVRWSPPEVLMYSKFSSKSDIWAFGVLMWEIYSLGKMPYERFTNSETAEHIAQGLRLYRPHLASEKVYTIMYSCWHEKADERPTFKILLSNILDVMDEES
row,DC50 [µM],SMILES
1,< 0.1,"Cc1cc(-c2ncnn3cc(-c4csc(CN5CCC(c6ccc(C7CCC(=O)NC7=O)cc6)CC5)n4)cc23)ccc1CNC(=O)c1noc(C(C)(C)C)n1 (centres unmarked) [Example 208, 5-(tert-butyl)-N-(4-(6-(2-((4-(4-(2,6-dioxopiperidin-3-yl)phenyl)piperidin-1-yl)methyl)thiazol-4-4-yl)pyrrolo[2,1-f][1,2,4]triazin-4-yl)-2-methylbenzyl)-1,2,4-oxadiazole-3-carboxamide]"
2,< 0.1,"Cc1cc(-c2ncnn3cc(N4CCN(C(=O)C5CC6(CCCN6C(=O)c6ccc(OC7CCC(=O)NC7=O)cc6)C5)CC4)cc23)ccc1CNC(=O)c1noc(C(C)(C)C)n1 (centres unmarked) [Example 186, 5-(tert-butyl)-N-(4-(6-(4-(5-(4-((2,6-dioxopiperidin-3-yl)oxy)benzoyl)-5-azaspiro[3.4]octane-2-carbonyl)piperazin-1-yl)pyrrolo[2,1-f][1,2,4]triazin-4-yl)-2-methylbenzyl)-1,2,4-oxadiazole-3-carboxamide]"
3,> 1,"CC(C)(C)c1nc(C(=O)NCc2ccc(-c3ncnn4cc(C#CC(F)(F)CN5CCC(c6ccc(C7CCC(=O)NC7=O)cc6)CC5)cc34)cc2F)no1 (centres unmarked) [Example 225, 5-tert-butyl-N-[[4-[6-[4-[4-[4-(2,6-dioxo-3-piperidyl)phenyl]-1-piperidyl]-3,3-difluoro-but-1-ynyl]pyrrolo[2,1-f][1,2,4]triazin-4-yl]-2-fluoro-phenyl]methyl]-1,2,4-oxadiazole-3-carboxamide]"
4,0.1 to 0.5,"Cc1cc(-c2ncnn3cc(N4CCN(C(=O)c5ccc(CNC(=O)c6ccc(OC7CCC(=O)NC7=O)cc6)nc5)CC4)cc23)ccc1CNC(=O)c1noc(C(C)(C)C)n1 (centres unmarked) [Example 179, 5-(tert-butyl)-N-(4-(6-(4-(6-((4-((2,6-dioxopiperidin-3-yl)oxy)benzamido)methyl)nicotinoyl)piperazin-1-yl)pyrrolo[2,1-f][1,2,4]triazin-4-y1)-2-methylbenzyl)-1,2,4-oxadiazole-3-carboxamide]"

# More lines, now with the values behind:
row,SMILES,DC50 [µM]
1,"Cc1cc(-c2ncnn3cc(-c4ccc(CN5CCC(c6ccc(NC7CCC(=O)NC7=O)cc6)CC5)cc4)cc23)ccc1CNC(=O)N1CCC(OC(C)(C)C)C1 (centres unmarked) [Example 98, 3-tert-butoxy-N-[[4-[6-[4-[[4-[4-[(2,6-dioxo-3-piperidyl)amino]phenyl]-1-piperidyl]methyl]phenyl]pyrrolo[2,1-f][1,2,4]triazin-4-yl]-2-methyl-phenyl]methyl]pyrrolidine-1-carboxamide]",< 0.1
2,"Cc1cc(-c2ncnn3cc(-c4ccc(CN5CCC(c6ccc(NC7CCC(=O)NC7=O)cc6)CC5)cc4)cc23)ccc1CNC(=O)c1ccc(C(C)(C)C)cc1 (centres unmarked) [Example 84, 4-tert-butyl-N-[[4-[6-[4-[[4-[4-[(2,6-dioxo-3-piperidyl)amino]phenyl]-1-piperidyl]methyl]phenyl]pyrrolo[2,1-f][1,2,4]triazin-4-yl]-2-methyl-phenyl]methyl]benzamide]",< 0.1
3,"CC(C)(C)OC1CN(C(=O)NCc2ccc(-c3ncnn4cc(CCCCN5CCC(c6ccc(NC7CCC(=O)NC7=O)cn6)CC5)cc34)cc2F)C1 (centres unmarked) [Example 135, 3-tert-butoxy-N-[[4-[6-[4-[4-[5-[(2,6-dioxo-3-piperidyl)amino]-2-pyridyl]-1-piperidyl]butyl]pyrrolo[2,1-f][1,2,4]triazin-4-yl]-2-fluoro-phenyl]methyl]azetidine-1-carboxamide]",< 0.1
4,"Cc1cc(-c2ncnn3cc(-c4ccc(CN5CCC(c6ccc(NC7CCC(=O)NC7=O)cc6)CC5)cc4)cc23)ccc1CNC(=O)c1ccc(C(F)(F)F)cn1 (centres unmarked) [Example 88, N-[[4-[6-[4-[[4-[4-[(2,6-dioxo-3-piperidyl)amino]phenyl]-1-piperidyl]methyl]phenyl]pyrrolo[2,1-f][1,2,4]triazin-4-yl]-2-methyl-phenyl]methyl]-5-(trifluoromethyl)pyridine-2-carboxamide]",< 0.1
